According to patent EP0305845A1, “Pyridyl ethanol amines, pharmaceutical compositions containing them and processes for their preparation” (Dr. Karl Thomae GmbH, priority 1987, dated 1989):
Where a name gives a salt, the structure may show the parent alone.

Columns and labels:
Format in all cases: in vivo
[1] = tested on: weiblichen Mäusen eigener Zucht; assay: Antiadipose effect a): increase of lipolysis measured as rise of serum glycerol in mice; conditions: same procedure as the blood glucose test
Excerpt: (§1) Die antidiabetische Wirkung der erfindungsgemäßen Verbindungen läßt sich als eine blutzuckersenkende Wirkung bei Versuchstieren messen. Die zu untersuchenden Substanzen wurden dazu in 1,5%iger Methylzellulose suspendiert und weiblichen Mäusen eigener Zucht mittels Schlundsonde appliziert. 30 Minuten später wurde 1 g Glukose pro kg Körpergewicht in Wasser gelöst und subkutan appliziert. Weitere 30 Minuten später wurde aus dem retroorbitalen Venenplexus Blut entnommen. Aus dem Serum wurde Glukose mit der Hexokinase-Methode mit Hilfe eines Analysenphotometers bestimmt.
Die antiadipöse Wirkung der erfindungsgemäßen Verbindungen wurde in zwei Versuchsanordnungen nachgewiesen: a) In der ersten Versuchsanordnung wurde die Steigerung der Lipolyse am Anstieg des Glyzerins im Serum gemessen. Der Versuchsablauf ist identisch mit der zur Testung auf blutzuckersenkende Wirkung vorstehend beschriebenen Versuchsanordnung. Glyzerin wurde in einem kombinierten enzymatisch-kolorimetrischen Test mit Hilfe eines Analysenphotometers bestimmt. Die Ergebnisse sind in der nachfolgenden Tabelle in % einer mitgeführten Kontrollgruppe aufgeführt.

[2] = tested on: Mäusen; assay: Antiadipose effect b): decrease of ovarian fat tissue weight in mice; conditions: dose 0,3 mg/kg once daily by gavage; fat tissue weighed on day 5
Excerpt: b) In der zweiten Versuchsanordnung zur Erfassung antiadipö-ser Wirkung der erfindungsgemäßen Verbindungen wurde die Abnahme des Fettgewebes am Beispiel des Ovarfettgewebes gemessen. Die Verbindungen wurden zu diesem Zwecke Mäusen einmal täglich mittels Schlundsonde in 1,5%iger Methylzellulosesuspension appliziert. Am fünften Tag wurde das Ovarfettgewebe herauspräpariert und gewogen. In der nachfolgenden Tabelle sind die Ergebnisse in % einer mitgeführten Kontrollgruppe wiedergegeben.

[3] = tested on: weiblichen Mäusen eigener Zucht; assay: Antidiabetic effect: blood glucose lowering after subcutaneous glucose load in mice; conditions: 1 g/kg glucose s.c. 30 min later, serum glucose after a further 30 min
Excerpt: as §1
In der nachstehenden Tabelle sind die bei dieser Versuchsanordnung beobachteten Blutzuckersenkungen in % einer mitgeführten Kontrollgruppe zusammengestellt. Die statistische Auswertung erfolgt nach dem t-Test nach Student mit p=0,05 als Signifikanzgrenze.

[4] = tested on: Mäusen; assay: Cardiac side effects: heart rate in mice by ECG-triggered tachograph; conditions: 1 hour after application
Excerpt: Das Auftreten von unerwünschten Nebenwirkungen auf das Herz konnte für die erfindungsgemäßen Verbindungen für den therapeutisch angestrebten stoffwechselaktiven Dosisbereich ausgeschlossen werden. Als Nachweis diente die Messung der Herzfrequenz an Mäusen während der Testung auf blutzuckersenkende Wirkung (s.o.). Eine Stunde nach der oralen Applikation der Verbindungen wurde die Herzfrequenz mittels EKG-getriggertem Tachographen bestimmte. Die nachfolgende Tabelle gibt die Änderung der Herzfrequenz in % der Kontrollgruppe wieder.

[5] = dose 0,3 mg/kg oral, values in ( ) = not significant (p > 0.05)

## CC(Cc1ccc(OCC(=O)O)cc1)NCC(O)c1cccc(Cl)n1 (single isomer, unassigned) [Beispiel 4, N-[2-(4-Carboxymethoxyphenyl)-1-methylethyl]-2-hydroxy-2-(6-chlor-pyridin-2-yl)ethanamin]
[1]; dose 0,3 mg/kg by gavage
  Anstieg des Glyzerins im Serum, % Änderung vom Wert der Kontrollgruppe: +891%

## CC(Cc1ccc(OCCO)cc1)NCC(O)c1cccc(Cl)n1 (single isomer, unassigned) [Beispiel 5]
[2]
  Abnahme des Ovarfettgewebes, % Änderung vom Wert der Kontrollgruppe: -54%
[1]; dose 0,3 mg/kg by gavage
  Anstieg des Glyzerins im Serum, % Änderung vom Wert der Kontrollgruppe: +878%
[3]; dose 0,3 mg/kg by gavage
  Blutzuckersenkungen, % Änderung vom Wert der Kontrollgruppe: -66%
[4]; [5]
  Änderung der Herzfrequenz, % Änderung vom Wert der Kontrollgruppe: (+27) %

## COC(=O)COc1ccc(CC(C)NCC(O)c2cccc(Cl)n2)cc1 (stereo not drawn) [Beispiel 1, N-[2-(4-Carbomethoxymethoxyphenyl)-1-methylethyl]-2-hydroxy-2-(6-chlor-pyridin-2-yl)ethanamin-hydrochlorid]
[1]; dose 1,0 mg/kg by gavage
  Anstieg des Glyzerins im Serum, % Änderung vom Wert der Kontrollgruppe: +882%
[3]; dose 1,0 mg/kg by gavage
  Blutzuckersenkungen, % Änderung vom Wert der Kontrollgruppe: -66%
[4]; dose 10 mg/kg oral
  Änderung der Herzfrequenz, % Änderung vom Wert der Kontrollgruppe: +35%

## CC(Cc1ccc(OCCO)cc1)NCC(O)c1cccc(Cl)n1 (stereo not drawn) [Beispiel 2, N-[2-(4-(2-Hydroxyethoxy)phenyl)-1-methylethyl]-2-hydroxy-2-(6-chlor-pyridin-2-yl)ethanamin-hydrochlorid]
[1]; dose 0,1 mg/kg by gavage
  Anstieg des Glyzerins im Serum, % Änderung vom Wert der Kontrollgruppe: +454%
[3]; dose 0,1 mg/kg by gavage
  Blutzuckersenkungen, % Änderung vom Wert der Kontrollgruppe: -64%
[4]; [5]
  Änderung der Herzfrequenz, % Änderung vom Wert der Kontrollgruppe: (+6,9) %

## CC(Cc1ccc(OCC(=O)O)cc1)NCC(O)c1cccc(Cl)n1 (stereo not drawn) [Beispiel 3, N-[2-(4-Carboxymethoxyphenyl)-1-methylethyl]-2-hydroxy-2-(6-chlor-pyridin-2-yl)ethanamin]
[1]; dose 0,3 mg/kg by gavage
  Anstieg des Glyzerins im Serum, % Änderung vom Wert der Kontrollgruppe: +309%
